Source: patent US11524078B2, “Water-soluble macromolecular derivative of Venetoclax” (Delta-Fly Pharma, Inc., priority 2020, dated 2022)

Legend:
[1] = test system: human acute myelocytic leukemia cell line MV4-11; experiment: Cytotoxic effect, human acute myelocytic leukemia cell line MV4-11; assay type: cell-based; conditions: Opti-MEM reduced-serum medium used for compound of formula (I), read-out: IC50 (50% inhibition percentage)
Description: (§1) Concentration dependence of the cytotoxic effect of the compound of formula (I) and the compound of formula (II) was examined as described below.

[2] = test system: human acute myelocytic leukemia cell line OCI-AML-2; experiment: Mouse model of human acute myelocytic leukemia (OCI-AML-2), subcutaneous transplant; assay type: in vivo; conditions: OCI-AML-2 s.c. mice; (II) i.v. weekly x2 at 100-300 mg/kg; (I) oral daily two weeks 100 mg/kg
Description: The effects of the compounds on suppressing tumor growth were compared in mice groups by using mice models which were generated by transplanting a human acute myelocytic leukemia cell line OCI-AML-2 subcutaneously into mice. The mice groups were the following: a control group; groups whose mice received the compound of formula (II) intravenously once every week for two weeks at a dose of 100 mg/kg, 200 mg/kg, or 300 mg/kg; and a group whose mice received the compound of formula (I) orally every day for two weeks at a dose of 100 mg/kg (see FIG. 5(1)).

[3] = test system: human histiocytic lymphoma cell line U937; experiment: Mouse model of human histiocytic lymphoma (U937), subcutaneous transplant; assay type: in vivo; conditions: U937 s.c. mice; (II) i.v. weekly x2 at 200 or 300 mg/kg; (I) oral daily two weeks 100 mg/kg
Description: The effects of the compounds on suppressing tumor growth were compared in three groups by using mice models which were generated by transplanting a human histiocytic lymphoma cell line U937 subcutaneously into mice. The three groups were the following: a control group; a group whose mice received the compound of formula (II) intravenously at a frequency of once a week for two weeks at a dose of 200 mg/kg or 300 mg/kg; and a group whose mice received the compound of formula (I) orally every day for two weeks at a dose of 100 mg/kg.

[4] = test system: BAX; experiment: BAX expression in cytoplasm and mitochondrial fractions of MV4-11 cells; assay type: cell-based, human; conditions: (I) 0.1 and 1 μM, (II) 0.01, 0.1 and 1 μM, incubation five hours
Description: Human acute myelocytic leukemia cells MV4-11 were plated on a culture medium and cultured overnight. Then, the compound of formula (I) was added at concentrations of 0.1 μM and 1 μM, and the compound of formula (II) was added at concentrations of 0.01 μM, 0.1 μM, and 1 μM. After incubation for five hours, a cytoplasm fraction and a mitochondrial fraction were extracted and BAX expression was examined.

[5] = test system: cytochrome C; experiment: Cytochrome C release from mitochondria into cytoplasm in MV4-11 cells; assay type: cell-based, human; conditions: (I) 0.1 and 1 μM, (II) 0.01, 0.1 and 1 μM, incubation five hours
Description: In the above described Pharmaceutical Interview Form, “cytochrome C” that flowed out from mitochondria into cytoplasm is described as “pro-apoptotic protein.” Therefore, human acute myelocytic leukemia cells MV4-11 were plated on a culture medium and cultured overnight. Then, the compound of formula (I) was added at concentrations of 0.1 μM and 1 μM, and the compound of formula (II) was added at concentrations of 0.01 μM, 0.1 μM, and 1 μM. After incubation for five hours, a cytoplasm fraction and a mitochondrial fraction were extracted and cytochrome C release was examined.

[6] = test system: caspase; experiment: Caspase activity of MV4-11 cells; assay type: cell-based, human
Description: According to the above described Pharmaceutical Interview Form, cytochrome C that flowed out from mitochondria into cytoplasm activates caspase, thereby inducing apoptosis. Therefore, human acute myelocytic leukemia cells MV4-11 were plated on a culture medium and cultured overnight. Then, the compound of formula (I) was added at concentrations of 1 pM, 0.01 nM, 0.1 nM, 1 nM, 0.01 μM, 0.1 μM, and 1 μM; and the compound of formula (II) was added at concentrations of 1 pM, 0.01 nM, 0.1 nM, 1 nM, 0.01 μM, and 0.1 μM. After incubation for 24 hours, the culture medium was collected and caspase activity was examined by a conventional known technique.

[7] = Solubility in water of compounds; assay type: physicochemical; conditions: (I): 10 mg/mL in physiological saline containing 0.5% CMC, sonication, (II): 10 and 20 mg/mL in physiological saline at 40° C. to 50° C.
[8] = human protein; cited from earlier work
[9] = test system: human lung cancer cell line A549; experiment: Cytotoxic effect, human lung cancer cell line A549; conditions: A549, read-out: IC50 (50% inhibition percentage)
Description: as §1

[10] = test system: human pancreatic cancer cell line PANC-1; experiment: Cytotoxic effect, human pancreatic cancer cell line PANC-1; conditions: PANC-1, read-out: IC50 (50% inhibition percentage)
Description: as §1

effect on suppressing weight change [2]: suppressed weight change
state of preparation in aqueous vehicle [7]: uniform bright yellow opaque suspension
Compound: CC1(C)CCC(CN2CCN(c3ccc(C(=O)NS(=O)(=O)c4ccc(NCC5CCOCC5)c([N+](=O)[O-])c4)c(Oc4cnc5[nH]ccc5c4)c3)CC2)=C(c2ccc(Cl)cc2)C1 [compound of formula (I), Venetoclax]
IC50 [1]: 160 nM
effect of suppressing tumor growth [3]: no effect of suppressing growth of U937
BAX in the cytoplasm fraction [4]: concentration-dependent decrease of BAX in the cytoplasm fraction
amount of cytochrome C released from mitochondria into cytoplasm [5]: increased depending on the concentration
caspase activity, concentration dependence ([6]; 1 pM to 1 μM (I), 1 pM to 0.1 μM (II), incubation 24 hours): increased depending on the concentration
caspase activity at 0.1 μM, (I) versus (II) ([6]; concentration in terms of Venetoclax 0.1 μM, 24 hours): exactly the same caspase activity
binding percentage to protein [8]: ≥ 99.9%
IC50 [9]: 990 nM
IC50 [10]: 990 nM
